These results are taken from patent US12595269B2, “Morpholine-like monoamine releasers” (Solvonis Therapeutics Ireland Holdings Limited, priority 2022, dated 2026).

Data set [1] can be described thus: Lipophilicity by Chromatographic Hydrophobicity Index (CHI LogD). In kind it is physicochemical. How it is done:
Methods and Procedure: The methods employed herein comply with previously described procedures to assure data integrity and adherence to GLP regulations. Briefly, a CHI value was determined by comparing the retention time of a test compound to a linear curve based on a set of calibration compounds with known CHI values. The resultant CHI value can be further converted to a CHI Log D value using an established linear regression equation.
Reference compounds with known CHI values, including theophylline, phenyltetrazole, benzymidazole, colchicine, phenyltheophylline, acetophenone, indole, propiophenone, butyrophenone, valerophenone, were used to create a calibration line. Test compounds (10 mM) were prepared in DMSO on the same day of the experiment, when feasible. For sample preparation, 10 μL of test solution was diluted with 190 μL of a solution of Ammonium Acetate solution (50 mM) and Acetonitrile (1:1) pH7.4, which was then mixed via shaking at room temperature for 10 minutes. Test solutions were compared with the reference compounds via HPLC-UV, as described in Example 19. The gradient was calibrated by determining the retention time of each reference compound on a reverse phase LC system at a pH of 7.4.
The relationship of CHI with retention time is “CHI=Atr+B,” wherein A and B are the constants of a linear plot of CHI against their gradient retention times, and tr is retention time.
The test compounds were analyzed on the same system as the test mix. The equation generated from the calibration line for the reference compounds was then used to determine the unknown CHI value for the test compound. From the CHI value, the Log D was extrapolated according to the following equation, as described in Valko et al, 2001: Log D=0.0525×CHI pH7.4-1.467. Log D represents the log of the partitioning of a chemical compound between the lipid and aqueous phases.

A further data set concerns the target T1, DAT (dopamine release) (Rattus norvegicus, UniProt P23977).
T1 construct: added to the tube containing the crude striatal synaptosomes preparation; from tissue; host or cells: rat striatum, crude synaptosomes
The data set is described as follows: Dopamine release filtration assay in rat striatal synaptosomes. In kind it is cell-based. The note with it: % of release by 50 μM MDMA, read-out: DAT release pEC50 (converted). How it is done: Methods and Procedure—Release: The potency of the disclosed compounds for stimulating dopamine (DA) release was measured by an endpoint release filtration assay in a 96-well format using rat synaptosomes, essentially as described by Sandtner et al., Mol. Pharmacol., 2016; 89(1):165-75, and Baumann et al., Neuropsychopharmacol., 2013; 38:552-562, with some variations.
One male rat was sacrificed and striatum/cortex regions were dissected over ice. The striatum portions were weighed and put in a glass tube for homogenization, containing ice-cold 0.32 M sucrose (dilution 1:24 w/v), while the frontal cortex tissue was diluted in ice-cold 0.32 M sucrose, 1:20 w/v. Tissues were homogenized and centrifuged for 10 mins at 1000×g. The two supernatants from striatum and cortex (crude synaptosomes) were retained on ice until use.
Test compounds were then serially diluted 1:4 in neat DMSO as concentration-response curves (CRC) of 11 points. […]
^3H-Dopamine was added to the tube containing the crude striatal synaptosomes preparation, diluted 1:20 (v/v) in complete Krebs-phosphate buffer, and was incubated at RT and gently mixed for 60 minutes. […] The retained radioactivity was counted in a scintillation counter after the addition of 50 μL/well Microscint-20.
The raw data (cpm) from residual radioactivity onto the filter were elaborated for the determination of pEC50/EC50 values. Specifically, the compound effect was expressed as the percent of maximal release obtained with 50 μM MDMA (100% release) in comparison to vehicle (0.5% DMSO, 0% release). […] In each plate, for both 0% and 100% of release, the signal window is monitored performing Z′ calculations using raw data of four replicates.

The mark [2] stands for this setting: pH 7.4, as stated in text under Table 10, read-out: calculated Log D values.
[3] abbreviates: pH 7.4, pH 7.4, HPLC-UV, read-out: Chi LogD.

Read-outs that look alike come from different tables or passages of the source.

T1 sequence (P23977 whole entry): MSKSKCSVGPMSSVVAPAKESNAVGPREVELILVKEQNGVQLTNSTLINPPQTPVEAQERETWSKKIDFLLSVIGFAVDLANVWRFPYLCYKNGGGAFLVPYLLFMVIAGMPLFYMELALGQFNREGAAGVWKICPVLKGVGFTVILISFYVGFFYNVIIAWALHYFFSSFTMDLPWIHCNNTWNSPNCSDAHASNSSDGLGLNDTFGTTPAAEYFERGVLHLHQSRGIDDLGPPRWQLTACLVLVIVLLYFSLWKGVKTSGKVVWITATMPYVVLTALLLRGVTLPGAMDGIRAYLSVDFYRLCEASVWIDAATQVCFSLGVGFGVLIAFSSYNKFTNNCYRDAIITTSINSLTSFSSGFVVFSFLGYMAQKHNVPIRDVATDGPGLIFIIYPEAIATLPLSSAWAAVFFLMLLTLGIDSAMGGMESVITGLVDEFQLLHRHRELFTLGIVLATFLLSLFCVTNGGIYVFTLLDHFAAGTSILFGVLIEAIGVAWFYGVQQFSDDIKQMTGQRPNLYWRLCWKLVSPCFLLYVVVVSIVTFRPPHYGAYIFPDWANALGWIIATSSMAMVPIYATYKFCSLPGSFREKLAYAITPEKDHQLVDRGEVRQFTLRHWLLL

Take `CNC(C)Cc1ccc2c(c1)OCO2` (centres unmarked) [MDMA, reference compound]: the chromatographic logD in data set [1] (setting [2]) and in data set [1] (setting [3]) was 0.29 each time.
As to `Clc1ccc([C@]23CN[C@H](CO2)C3)cc1Cl` (single isomer, unassigned) [516A], the chromatographic logD in data set [1] (setting [2]) is 1.15; in data set [1] (setting [3]), 0.75. Besides, the EC50 on DAT (dopamine release) is 1100 nM.
The matching figures for `Clc1ccc([C@@]23CN[C@@H](CO2)C3)cc1Cl` (single isomer, unassigned) [518A]: 1.15, 0.75 and 33.1 nM.
In the same order, the values of `Clc1ccc(C23CNC(CO2)C3)cc1Cl` (centres unmarked) [522A, 1-(3,4-dichlorophenyl)-2-oxa-5-azabicyclo[2.2.1]heptane] are 1.15, 0.75 and 61.7 nM.
